# Earlier results as cited in patent US20170071955A1, “METHOD OF STABILIZING WEIGHT AFTER A WEIGHT-LOSS DIET USING PHYTOECDYSONES” (BIOPHYTIS SA, priority 2011, published 2017).
# Details: mammals on a fattening hypercaloric diet
smiles,measurement,value
CC(C)(O)CC[C@@H](O)[C@](C)(O)[C@H]1CC[C@@]2(O)C3=CC(=O)[C@@H]4C[C@@H](O)[C@@H](O)C[C@]4(C)[C@H]3CC[C@]12C [20-hydroxyecdysone],effect on body fat,reduce the increase of body fat
